# Results taken from patent US8535672B2, “Broad-spectrum in-vivo effective superantigen toxin antagonists based on the interaction between CD28 and the superantigen and uses thereof” (Yissum Research Development of the Hebrew University of …, priority 2003, dated 2013).
# Entries after “also recorded” stand apart in the source; their conditions may differ. Non-standard residues stand in square brackets, D forms with d. Residues, ends and D or L forms follow the SMILES beside them. No end group written: not given here.
# Assays:
# [1] = system: IL2 and IFN-γ mRNA induced by SEB in human PBMC; type: cell-based
# [2] = molecular target: T1, SEB (Staphylococcus aureus, UniProt P01552); set-up: species or system BALB/c mice; conditions: mouse
# [3] = mouse, in vivo
# [4] = system: IL10 and IL4 induced by SEB in human PBMC; type: cell-based
# [5] = system: IL2 and IFN-γ mRNA in human PBMC; type: cell-based
# [6] = molecular target: T2, soluble CD28 (sCD28) (Homo sapiens, UniProt P10747); type: binding
# T2 construct: comprise the extracellular 37-162, 19-152, 21-141, 24-167 and 20-239 amino acid, respectively, of the mature human ligands domain; purchased R&D Systems 342-CD; host or cells: mouse myeloma NS0 cells
# [7] = molecular target: T1, SEB
# [8] = system: IL2 and IFN-γ mRNA induced by αCD28, αCD3, sB7-2 in human PBMC; type: cell-based
# [9] = molecular target: T1, SEB; remark: listed apart in the source
# [10] = system: p14A; type: binding
# [11] = system: IL2 and IFN-γ mRNA induced by TSST-1 in human PBMC; type: cell-based
# [12] = molecular target: T3, sCD28 (Homo sapiens, UniProt P10747); test: ELISA: binding of anti-CD28 to immobilized sCD28 in presence of antagonist peptide; conditions: 1,000-fold diluted anti-CD28, p14A from 0.1 μg per ml
# T3 construct: comprise the extracellular 37-162, 19-152, 21-141, 24-167 and 20-239 amino acid, respectively, of the mature human ligands domain; purchased R&D Systems 342-CD; host or cells: mouse myeloma NS0 cells
# Protocol: An amount of 250 ng sCD28 was immobilized on an ELISA microtiter plate and binding of anti-CD28 at the two indicated dilutions (corresponding to 250 and 125 ng/ml, respectively) was measured by use of a secondary antibody coupled to alkaline phosphatase, recording absorbency at 450 nm. p14A was either absent (Control) or present at the indicated concentrations. Abbreviations: bin. (binding), Un. (units), cont. (control), ml (milliliter), μg (microgram), α (anti).
# Yet another assay was devised to show a direct interaction between antagonist peptide and sCD28. The inventors developed an enzyme-linked immune sorbent assay (ELISA) in which sCD28 is immobilized in the wells of a microtiter ELISA plate and binding of anti-CD28 is measured by use of a secondary antibody coupled to alkaline phosphatase. It is seen in FIG. 16 that binding of 1,000-fold diluted anti-CD28 to the plate was inhibited by p14A even at a concentration of only 0.1 μg per ml. […] Thus, antagonist peptide p14A is a powerful inhibitor of the interaction between anti-CD28 and sCD28.
# [13] = molecular target: T3, sCD28; type: binding
# [14] = molecular target: T4, sCD28/sB7-2 (Homo sapiens, UniProt P10747); type: binding
# T4 construct: comprise the extracellular 37-162, 19-152, 21-141, 24-167 and 20-239 amino acid, respectively, of the mature human ligands domain; purchased R&D Systems 342-CD (sCD28); host or cells: mouse myeloma NS0 cells
# [15] = system: IL10 in human PBMC; type: cell-based
# [16] = molecular target: T5, PD-1 (Homo sapiens, UniProt Q15116); type: binding
# T5 construct: comprise the extracellular 37-162, 19-152, 21-141, 24-167 and 20-239 amino acid, respectively, of the mature human ligands domain; purchased R&D Systems; host or cells: mouse myeloma NS0 cells
# T5 sequence (Q15116 24-167): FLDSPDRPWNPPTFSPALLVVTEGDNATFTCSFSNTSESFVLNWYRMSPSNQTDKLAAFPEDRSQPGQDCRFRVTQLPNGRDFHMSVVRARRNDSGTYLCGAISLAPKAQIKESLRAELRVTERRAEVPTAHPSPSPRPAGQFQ
compound,measurement,setting,value
FHKHKNPGSPII [pc3],antagonism of SEB-mediated induction of IL2 and IFN-γ mRNA,[1],inhibited
same,molar excess (ratio) over SEB at which protective in vivo,[2],about equimolar ratio
same,mice surviving SEB challenge / group,[2]; in vivo,7/10
same,toxicity of peptide alone,[3],lacked detectable toxicity
same,effect on SEB-mediated induction of IL10 / IL4 (Th2 response),[4],failed to inhibit induction of IL10
same,induction of Th1 cytokine mRNA by the substance alone (agonist activity),[5],lacked superantigen agonist activity
YVIDPEPCP (Synthetic peptide p1TB),antagonism of SEB-mediated induction of IL2 and IFN-γ mRNA,[1],inhibited
same,molar excess (ratio) over SEB at which protective in vivo,[2],3.6 fold
same,protection of mice from lethal SEB challenge,[2]; in vivo,protected mice from lethal challenge
same,effect on SEB-mediated induction of IL10 / IL4 (Th2 response),[4],left induction of IL10 intact
"C-EKAKYTQLVKDN-C (CEKAKYTQLVKDNC; terminal cysteines; Sequence of artificial peptide p12Csc) [randomly scrambled p12C, reference compound]",binding to CD28 (SPR),[6],failed to bind CD28
sCD28: recombinant soluble CD28: extracellular domain of human CD28 fused to His6-tagged Fc of human IgG (R&D Systems 342-CD),competition of anti-SEB Ab binding to SEB (ELISA),[7],about 75%
same,antagonism of SEB-mediated induction of IL2 and IFN-γ mRNA,[1],dose-dependent manner
same,inhibition of SEB induction of IFN-γ mRNA,[1],about twenty fold
same,inhibition of SEB induction of IL-2 mRNA,[1],3.5 fold
same,effect on induction of IL2/IFN-γ mRNA by αCD28 alone,[8],inhibited
same,inhibition of binding of anti-SEB Ab to SEB,[9],84%
same,reduction of anti-SEB binding to SEB,[9],about 5 fold
same,inhibition of anti-p14A Ab binding to p14A (ELISA),[10],over 90%
same,induction of Th1 cytokine mRNA by the substance alone (agonist activity),[5],did not induce IFN-γ mRNA
HVKGKHLCP (Synthetic peptide p1TA),antagonism of SEB-mediated induction of IL2 and IFN-γ mRNA,[1],antagonized
same,molar excess (ratio) over SEB at which protective in vivo,[2],3.6 fold
same,mice surviving SEB challenge / group,[2]; in vivo,7/10
same,"concentration without detectable toxicity, relative to that needed for protection",[3],25 fold
same,toxicity of peptide alone,[3],lacked detectable toxicity
same,inhibition of induction of IL2 and IFN-γ mRNA by TSST-1,[11],inhibited
daV Q Y N K K K A T V Q E L Dda ([dA]VQYNKKKATVQELD[dA]) [p14A],binding to CD28 (SPR),[6],bind directly to CD28
same,effect on binding of anti-CD28 to sCD28 (ELISA),[12],inhibited
same,antagonism of SEB-mediated induction of IL2 and IFN-γ mRNA,[1],blocked
same,effect on plasmon resonance signal for binding of anti-CD28 to sCD28,[13],reduced
same,effect on plasmon resonance signal for binding of sCD28 to sB7-2,[14],enhanced significantly
same,molar excess (ratio) over SEB at which protective in vivo,[2],12 fold
same,protection from lethal SEB challenge,[2]; in vivo,70%
same,effect on induction of IFN-γ mRNA by anti-CD3 alone,[8],did not inhibit
same,effect on induction of IFN-γ mRNA by anti-CD3 with sB7-2,[8],abrogated
same,effect on induction of IFN-γ mRNA by sB7-2 alone,[8],shifted the induction by sB7-2 alone to earlier times; also recorded: stimulated induction significantly
same,effect on induction of IL2/IFN-γ mRNA by αCD28 alone,[8],blocked
same,effect on induction of IL2/IFN-γ mRNA by αCD28 and αCD3 combined,[8],eliminated virtually in full
same,effect on SEB-mediated induction of IL10 / IL4 (Th2 response),[4],left induction of the Th2-type cytokines IL-10 and IL-4 intact
same,effect on induction of IL10 by αCD28/αCD3,[15],resistant
same,effect on induction of IL-10 by sB7-2/anti-CD3,[15],largely resistant
SHFTHNRHGHST (Synthetic Peptide pe12),antagonism of SEB-mediated induction of IL2 and IFN-γ mRNA,[1],strongly inhibited
same,molar excess (ratio) over SEB at which protective in vivo,[2],about equimolar ratio
same,mice surviving SEB challenge / group,[2]; in vivo,8/10
same,toxicity of peptide alone,[3],lacked detectable toxicity
same,effect on SEB-mediated induction of IL10 / IL4 (Th2 response),[4],failed to inhibit induction of IL10
same,induction of Th1 cytokine mRNA by the substance alone (agonist activity),[5],lacked superantigen agonist activity
"AAAAAAAAAAMYPPPY [control peptide containing another motif in the sCD28 molecule, reference compound]",antagonism of SEB-mediated induction of IL2 and IFN-γ mRNA,[1],did not show antagonist activity
same,induction of Th1 cytokine mRNA by the substance alone (agonist activity),[5],Neither pTA nor AAAAAAAAAAMYPPPY (SEQ ID NO: 7) alone were active as inducer
YESQLCCQL (Synthetic peptide p1TC),antagonism of SEB-mediated induction of IL2 and IFN-γ mRNA,[1],inhibited
same,protection of mice from lethal SEB challenge,[2]; in vivo,protected mice from lethal challenge
CC(C)C[C@H](NC(=O)[C@H](CCC(=O)O)NC(=O)[C@H](CCC(N)=O)NC(=O)[C@@H](NC(=O)[C@@H](NC(=O)[C@H](C)NC(=O)[C@H](CCCCN)NC(=O)[C@H](CCCCN)NC(=O)[C@H](CCCCN)NC(=O)[C@H](CC(N)=O)NC(=O)[C@H](Cc1ccc(O)cc1)NC(=O)[C@@H](N)CS)[C@@H](C)O)C(C)C)C(=O)N[C@@H](CC(=O)O)C(=O)N[C@@H](CS)C(=O)O [p12C] (H-CYNKKKATVQELDC-OH),antagonism of SEB-mediated induction of IL2 and IFN-γ mRNA,[1],as active as p14A
same,binding of PD-1 to immobilized peptide,[16],failed to bind significantly
PAVVLASS (Synthetic peptide p2TB),antagonism of SEB-mediated induction of IL2 and IFN-γ mRNA,[1],inhibited
same,molar excess (ratio) over SEB at which protective in vivo,[2],2 fold
same,protection of mice from lethal SEB challenge,[2]; in vivo,protected mice from lethal challenge
same,effect on SEB-mediated induction of IL10 / IL4 (Th2 response),[4],left induction of IL10 intact
WHAHPHKKPVVA [pd7],antagonism of SEB-mediated induction of IL2 and IFN-γ mRNA,[1],inhibited
same,mice surviving SEB challenge / group,[2]; in vivo,4/10
same,toxicity of peptide alone,[3],lacked detectable toxicity
same,effect on SEB-mediated induction of IL10 / IL4 (Th2 response),[4],failed to inhibit induction of IL10
same,induction of Th1 cytokine mRNA by the substance alone (agonist activity),[5],lacked superantigen agonist activity
"pSEB(41-61): a peptide that lacks antagonist activity (IDQFLYFDLIYSIKDTKLGNY; UniProt P01552 68-88, looked up, fragment) [reference compound]",effect on plasmon resonance signal for binding of sCD28 to sB7-2,[14],only slightly
SPMLVAYD [p2TA],antagonism of SEB-mediated induction of IL2 and IFN-γ mRNA,[1],antagonized
same,molar excess (ratio) over SEB at which protective in vivo,[2],0.8 fold
same,mice surviving SEB challenge / group,[2]; in vivo,8/10
same,"concentration without detectable toxicity, relative to that needed for protection",[3],125 fold
same,toxicity of peptide alone,[3],lacked detectable toxicity
same,inhibition of induction of IL2 and IFN-γ mRNA by TSST-1,[11],inhibited
AAAAAAAHVKGKHLCP [pTA],antagonism of SEB-mediated induction of IL2 and IFN-γ mRNA,[1],blocked
same,effect on induction of IL2/IFN-γ mRNA by αCD28 alone,[8],inhibited
same,effect on SEB-mediated induction of IL10 / IL4 (Th2 response),[4],left the induction of IL10 and IL4 intact
same,induction of Th1 cytokine mRNA by the substance alone (agonist activity),[5],Neither pTA nor AAAAAAAAAAMYPPPY (SEQ ID NO: 7) alone were active as inducer
GEINGSAN (Synthetic peptide p2TC),antagonism of SEB-mediated induction of IL2 and IFN-γ mRNA,[1],inhibited
same,protection of mice from lethal SEB challenge,[2]; in vivo,protected mice from lethal challenge
APMYHKHRLEKH (Synthetic peptide pe6),antagonism of SEB-mediated induction of IL2 and IFN-γ mRNA,[1],inhibited
IHKPHHHRTPLW (Synthetic peptide pf8),antagonism of SEB-mediated induction of IL2 and IFN-γ mRNA,[1],inhibited
"CHGHLVPKK (Synthetic scrambled control peptide p1TAsc) [scrambled form of p1TA, reference compound]",antagonism of SEB-mediated induction of IL2 and IFN-γ mRNA,[1],lacked antagonist activity
same,protection of mice from lethal SEB challenge,[2]; in vivo,failed to provide protection
